In PMC9586926, “An efflux-susceptible antibiotic-adjuvant with systemic efficacy against mouse infections” (Scientific Reports, 2022):
Where a SMILES comes first, the peptide text is derived from it. [ ]: non-standard residue; d: D form. The star is where a group is joined. 12Ado = NCCCCCCCCCCCC(=O)O; Decanoyl = CCCCCCCCCC(=O)*; Dab = NCC[C@H](N)C(=O)O

What was measured:
[1] = system: E. coli 25922; type: cell-based, Escherichia coli
Description: (§1) MIC was determined according to the broth microdilution method: antimicrobials were subjected to serial twofold dilutions in LB medium, and incubated with 5 × 10^5 CFU/ml of bacteria (final volume of 200 µl) for 18–24 h at 37 °C. Then, O.D.620 nm was measured (BioTek Instruments Synergy HT; Winooski, VT, USA), and the MIC was defined as the lowest antimicrobial concentration for which no increase in O.D.620 nm was evident, compared to the untreated control.
Lipopeptides and antibiotics combinations were assessed using a modified version of the checkerboard titration method: Antibiotics MIC was determined in LB medium containing sub-inhibitory lipopeptide concentrations. The sensitization factor (SF)[46] was then calculated by SF = MICA/MICC, where “MICA” is the antibiotic MIC in absence of an adjuvant and “MICC “ is the antibiotic MIC in presence of an adjuvant, for a specified adjuvant concentration. Combinations were classified as synergistic when antibiotics MIC were decreased by > 4 folds. Alternatively, the fractional inhibitory concentration index (FICI) was calculated by FICI = MICC1/MICA1 + MICC2/MICA2, where “MICC1” and “MICC2” respectively specify the antibiotic and the adjuvant MIC values upon their combination, whereas “MICA1” and “MICA2” respectively specify the antibiotic and the adjuvant MIC values when tested individually. Combinations were classified as synergistic for FICI < 0.5.

[2] = system: E. coli 25922; assay: Cytoplasmic membrane depolarization, DiSC3(5) fluorescence; type: cell-based, Escherichia coli; details: C10BBc12B up to 10 µM; PMB 2.5 µM
Description: Lipopeptides aptitude to depolarize the CM was evaluated using fluorescent measurements of the transmembrane potential sensitive dye 3,3′-Dipropylthiadicarbocyanine iodide (DiSC3(5))[69]. Bacteria (O.D.600 nm = 0.1) were washed by centrifugation at 10,000 RCF for 5 min, supernatant aspiration, and pellet resuspension in 5 mM HEPES containing 20 mM glucose, 50 mM KCl and 0.2 mM EDTA (pH = 7.2). This suspension was mixed with DiSC3(5) (400 µM in DMSO) to reach a final DiSC3(5) concentration of 4 µM and was incubated in the dark for 1 h at 37 °C with shaking. Then, 180 µl of this mixture were dispensed into black microtiter plates and fluorescence was recorded (excitation: 622 nm; emission: 670 nm) at 37 °C with shaking until baseline stabilization (BioTek Instruments Synergy HT; Winooski, VT, USA). Finally, 20 µl of HEPES containing serial twofold dilutions of lipopeptides were added and fluorescence was recorded for up to 30 min at the same conditions.

[3] = system: K. pneumoniae; assay: MIC, broth microdilution; type: cell-based, Klebsiella pneumoniae; details: broth microdilution in LB, 18–24 h, 37 °C; n = 2 strains
Source text: Bacteria used in this study consisted of standard American Type Culture Collection (ATCC; Biological Industries, Beit Haemek, Israel) strains, clinically isolated (CI; Sourasky Medical Center, Tel Aviv, Israel) strains, as well as isogenic mutant strains. Gram-negative bacteria included Acinetobacter baumannii ATCC 19606; Escherichia coli ATCC 25922, 35218, CFT073, CI 14384, 16327, and the isogenic pair Ag100 (wild-type) and its efflux deficient mutant Ag100a (ΔacrAB); Klebsiella pneumoniae CI 1287, 224; Pseudomonas aeruginosa ATCC 27853, CI 1278, 8634; Salmonella enterica serovar Typhimurium ATCC 14028 (wild-type) and its isogenic efflux deficient mutant ΔacrAB. Bacteria were grown in Luria–Bertani broth (LB; 5 g/l NaCl, 5 g/l yeast extract, 10 g/l tryptone; pH = 7.0) at 37 °C with shaking. Over-night cultures were diluted 10-folds into fresh growth-medium and incubated at 37 °C with shaking until reaching mid-logarithmic phase. Then, bacterial concentrations were adjusted using O.D.600 nm measurements, and bacteria were subjected to the experimental procedures listed herein.
as §1

[4] = system: E. coli 25922; assay: Outer membrane permeabilization, NPN fluorescence; type: cell-based, Escherichia coli
Description: Lipopeptides ability to permeabilize the OM was evaluated using fluorescent measurements of N-phenyl-1-naphthylamine (NPN)[67]. 200 µl of an over-night culture were diluted into 10 ml of fresh LB medium and incubated at 37 °C with shaking until reaching O.D.600 nm = 0.5. The culture was then centrifuged at 10,000 RCF for 3 min, the supernatant aspirated, and the pellet resuspended in equal volume of 5 mM HEPES containing 5 mM glucose (pH = 7.2). This suspension was then mixed with NPN (5 mM in acetone) to reach a final NPN concentration of 10 µM. Then, 190 µl of this mixture were dispensed into black microtiter plates, mixed with 10 µl of HEPES containing serial twofold dilutions of lipopeptides and fluorescence (excitation: 360 nm; emission: 460 nm) was recorded immediately for up to 10 min at 37 °C with shaking[29] (BioTek Instruments Synergy HT; Winooski, VT, USA). In a modified version of this assay, in which efflux was inhibited, bacteria (similarly prepared) were incubated with the lipopeptides in presence or absence of 100 µM CCCP for 5 min. Samples were then twice centrifuged at 10,000 RCF for 3 min, the supernatant aspirated, and the pellet resuspended in equal volume of 5 mM HEPES containing 20 mM glucose (pH = 7.2), so as to re-energize the efflux machinery. NPN was then added (final concentration of 10 µM) and fluorescence was recorded immediately thereafter.

CCCCCCCCCC(=O)N[C@@H](CCN)C(=O)N[C@@H](CCN)C(=O)NCCCCCCCCCCCC(=O)N[C@@H](CCN)C(N)=O [C10BBc12B, decanoyl-bis.diaminobutyrate-aminododecanoyl-diaminobutyrate-amide] (Decanoyl-[Dab][Dab][12Ado][Dab]-NH2)
relationship with EPI PAβN in rifampin potentiation ([1]; 10 µM C10BBc12B ± 5 µg/ml PAβN, SF for rifampin): antagonistic relationship | sensitization efficiency to rifampin ([1]; E. coli, from isobologram data): 65,000 folds | CM depolarization (trans-membrane potential) [2]: unable to affect the trans-membrane potential | MIC K. pneumoniae (n=2) [3]: > 50 µM | reduction of NPN fluorescence by 10 mM MgCl2 [4]: almost complete
